Experimental data: ChEMBL document CHEMBL1955733, “Optimization of 5-pyridazin-3-one phenoxypropylamines as potent, selective histamine H₃ receptor antagonists with potent cognition enhancing activity” (J Med Chem, 2012)
≈ marks a conversion by molar mass, not a printed value. Blank lines part the entries; values can stand above or below the compound they belong to. Calls of active or inactive are those of the source. The calls are words filed in the database; no cut-off is given here.

Key:
[1] = Clearance in Sprague-Dawley rat at 1 mg/kg, iv and 5 mg/kg, po; assay type: ADME, organism-based; details: in vivo
[2] = Half life in Sprague-Dawley rat at 1 mg/kg, iv and 5 mg/kg, po; assay type: ADME, organism-based; details: in vivo
Histamine H3 receptor [3] = target: Histamine H3 receptor (Rattus norvegicus, UniProt Q9QYN8); experiment: Displacement of [3H]NAMH from rat cloned […] expressed in CHO cells; assay type: cell-based
Histamine H3 receptor (Rattus norvegicus, UniProt Q9QYN8), sequence (Q9QYN8 whole entry): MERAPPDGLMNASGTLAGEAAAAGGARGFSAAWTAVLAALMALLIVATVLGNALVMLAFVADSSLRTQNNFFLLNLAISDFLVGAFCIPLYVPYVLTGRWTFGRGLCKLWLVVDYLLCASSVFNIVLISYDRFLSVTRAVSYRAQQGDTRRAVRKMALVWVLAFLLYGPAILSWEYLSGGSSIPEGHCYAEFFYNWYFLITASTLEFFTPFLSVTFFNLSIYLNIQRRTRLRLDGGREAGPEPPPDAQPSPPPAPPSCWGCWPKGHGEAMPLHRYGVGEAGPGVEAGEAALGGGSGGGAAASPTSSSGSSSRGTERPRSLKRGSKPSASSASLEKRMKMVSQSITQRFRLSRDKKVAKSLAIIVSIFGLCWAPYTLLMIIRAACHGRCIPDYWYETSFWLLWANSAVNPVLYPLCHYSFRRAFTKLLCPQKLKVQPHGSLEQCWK

Histamine H3 receptor [4] = target: Histamine H3 receptor (Homo sapiens, UniProt Q9Y5N1); experiment: Displacement of [3H]NAMH from human cloned […] expressed in CHO cells; assay type: cell-based
Histamine H3 receptor (Homo sapiens, UniProt Q9Y5N1), sequence (Q9Y5N1 whole entry): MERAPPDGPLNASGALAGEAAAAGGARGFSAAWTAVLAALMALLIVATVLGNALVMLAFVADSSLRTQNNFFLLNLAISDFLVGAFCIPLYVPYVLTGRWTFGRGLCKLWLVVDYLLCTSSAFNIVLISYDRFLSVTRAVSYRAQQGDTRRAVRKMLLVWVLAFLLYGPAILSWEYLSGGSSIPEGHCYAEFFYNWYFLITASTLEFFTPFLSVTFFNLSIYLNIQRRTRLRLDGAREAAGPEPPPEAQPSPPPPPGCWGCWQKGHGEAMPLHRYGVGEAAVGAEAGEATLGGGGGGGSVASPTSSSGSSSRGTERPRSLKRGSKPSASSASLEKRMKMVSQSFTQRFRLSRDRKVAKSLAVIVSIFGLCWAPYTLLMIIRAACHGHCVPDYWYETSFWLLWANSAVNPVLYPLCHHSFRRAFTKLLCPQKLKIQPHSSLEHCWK

[5] = Oral bioavailability in Sprague-Dawley rat at 5 mg/kg; assay type: ADME, organism-based; details: in vivo
[6] = Ratio of drug level in brain to plasma in Sprague-Dawley rat at 10 mg/kg, ip after 1 hr; assay type: ADME, organism-based; set-up: dose 10 mg/kg, route intraperitoneal; details: brain and plasma, read-out: BPR
Rattus norvegicus [7] = experiment: Cognitive effect in Sprague-Dawley rat social recognition model assessed as enhancement of short-term memory at 0.01 to 0.1 mg/kg, po measured after 120 mins; assay type: functional, organism-based
Mus musculus = experiment: Toxicity in mouse assessed as changes in behavioral and physiologic state up to 300 mg/kg, po by Irwin test; assay type: organism-based; set-up: dose 300 mg/kg, route oral; details: in vivo
Salmonella typhimurium = experiment: Mutagenic activity in Salmonella Typhimurium by Ames test; assay type: toxicity, organism-based; details: salmonella enterica subsp. enterica serovar typhimurium
[8] = Oral bioavailability in Sprague-Dawley rat at 10 mg/kg; assay type: ADME, organism-based; details: in vivo
[9] = Half life in Beagle dog at 1 mg/kg, iv and 3 mg/kg, po; assay type: ADME, organism-based, Canis lupus familiaris; details: in vivo
[10] = Half life in human; assay type: ADME, organism-based; details: in vivo
Cytochrome P450 1A2 = target: T1, Cytochrome P450 1A2 (Homo sapiens, UniProt P05177); experiment: Inhibition of CYP1A2; assay type: ADME
T1 sequence (P05177 whole entry): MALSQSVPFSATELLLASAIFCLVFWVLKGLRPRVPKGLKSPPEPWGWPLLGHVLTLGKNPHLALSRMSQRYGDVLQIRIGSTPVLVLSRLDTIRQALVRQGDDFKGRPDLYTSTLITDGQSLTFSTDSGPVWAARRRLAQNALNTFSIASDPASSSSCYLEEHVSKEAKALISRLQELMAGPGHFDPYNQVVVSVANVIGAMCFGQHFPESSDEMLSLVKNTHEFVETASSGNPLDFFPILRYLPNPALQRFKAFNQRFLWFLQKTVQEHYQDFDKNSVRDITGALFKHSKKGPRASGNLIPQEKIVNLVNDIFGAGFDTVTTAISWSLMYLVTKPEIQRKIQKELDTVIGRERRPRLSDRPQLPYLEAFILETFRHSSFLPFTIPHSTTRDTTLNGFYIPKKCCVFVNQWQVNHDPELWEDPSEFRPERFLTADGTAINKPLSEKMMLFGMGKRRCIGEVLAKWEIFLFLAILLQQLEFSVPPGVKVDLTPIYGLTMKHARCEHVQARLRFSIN

Cytochrome P450 2C9 = Cytochrome P450 2C9 (Homo sapiens, UniProt P11712); experiment: Inhibition of CYP2C9; assay type: ADME
Cytochrome P450 2C9, sequence (P11712 whole entry): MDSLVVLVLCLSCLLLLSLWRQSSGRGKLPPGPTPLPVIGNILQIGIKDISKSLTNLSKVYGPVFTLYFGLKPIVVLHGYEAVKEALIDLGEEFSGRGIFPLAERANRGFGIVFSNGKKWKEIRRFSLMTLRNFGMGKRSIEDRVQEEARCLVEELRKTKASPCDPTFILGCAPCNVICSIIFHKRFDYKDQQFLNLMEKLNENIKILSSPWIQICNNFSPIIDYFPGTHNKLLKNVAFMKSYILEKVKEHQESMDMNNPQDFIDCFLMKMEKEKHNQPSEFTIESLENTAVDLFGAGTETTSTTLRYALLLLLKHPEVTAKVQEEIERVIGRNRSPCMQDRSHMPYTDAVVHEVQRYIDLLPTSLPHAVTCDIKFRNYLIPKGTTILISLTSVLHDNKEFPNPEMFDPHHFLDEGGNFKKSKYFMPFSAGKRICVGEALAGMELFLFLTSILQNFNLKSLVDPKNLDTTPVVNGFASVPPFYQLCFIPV

Cytochrome P450 2C19 = Cytochrome P450 2C19 (Homo sapiens, UniProt P33261); experiment: Inhibition of CYP2C19; assay type: ADME
Cytochrome P450 2C19, sequence (P33261 whole entry): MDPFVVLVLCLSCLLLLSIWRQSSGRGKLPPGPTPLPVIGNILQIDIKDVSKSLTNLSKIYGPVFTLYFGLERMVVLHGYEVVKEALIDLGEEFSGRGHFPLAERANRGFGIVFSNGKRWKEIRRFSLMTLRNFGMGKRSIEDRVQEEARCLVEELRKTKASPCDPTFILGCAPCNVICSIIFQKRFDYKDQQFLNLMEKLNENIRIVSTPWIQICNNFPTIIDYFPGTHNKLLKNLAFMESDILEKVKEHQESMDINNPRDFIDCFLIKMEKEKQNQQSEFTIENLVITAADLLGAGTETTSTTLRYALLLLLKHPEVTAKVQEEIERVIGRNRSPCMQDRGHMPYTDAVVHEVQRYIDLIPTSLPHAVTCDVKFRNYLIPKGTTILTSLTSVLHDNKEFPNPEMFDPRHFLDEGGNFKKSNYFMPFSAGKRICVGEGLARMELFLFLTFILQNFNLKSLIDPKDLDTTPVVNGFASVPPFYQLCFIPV

Cytochrome P450 2D6 = Cytochrome P450 2D6 (Homo sapiens, UniProt P10635); experiment: Inhibition of CYP2D6; assay type: ADME
Cytochrome P450 2D6, sequence (P10635 whole entry): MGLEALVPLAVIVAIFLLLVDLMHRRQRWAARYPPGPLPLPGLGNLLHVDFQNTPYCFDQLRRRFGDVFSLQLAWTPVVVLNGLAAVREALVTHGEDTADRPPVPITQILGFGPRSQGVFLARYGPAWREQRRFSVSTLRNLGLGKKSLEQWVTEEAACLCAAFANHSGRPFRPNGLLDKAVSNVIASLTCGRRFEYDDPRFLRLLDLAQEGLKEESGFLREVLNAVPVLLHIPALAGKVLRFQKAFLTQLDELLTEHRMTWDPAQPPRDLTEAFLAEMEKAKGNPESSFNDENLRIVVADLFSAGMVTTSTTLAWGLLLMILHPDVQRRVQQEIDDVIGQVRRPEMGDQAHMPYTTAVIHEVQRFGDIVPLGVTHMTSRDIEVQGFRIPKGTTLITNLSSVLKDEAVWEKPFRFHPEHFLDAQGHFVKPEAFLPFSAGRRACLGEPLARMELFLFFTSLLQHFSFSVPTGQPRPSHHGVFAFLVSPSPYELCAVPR

Cytochrome P450 3A4 = Cytochrome P450 3A4 (Homo sapiens, UniProt P08684); experiment: Inhibition of CYP3A4; assay type: ADME
Cytochrome P450 3A4, sequence (P08684 whole entry): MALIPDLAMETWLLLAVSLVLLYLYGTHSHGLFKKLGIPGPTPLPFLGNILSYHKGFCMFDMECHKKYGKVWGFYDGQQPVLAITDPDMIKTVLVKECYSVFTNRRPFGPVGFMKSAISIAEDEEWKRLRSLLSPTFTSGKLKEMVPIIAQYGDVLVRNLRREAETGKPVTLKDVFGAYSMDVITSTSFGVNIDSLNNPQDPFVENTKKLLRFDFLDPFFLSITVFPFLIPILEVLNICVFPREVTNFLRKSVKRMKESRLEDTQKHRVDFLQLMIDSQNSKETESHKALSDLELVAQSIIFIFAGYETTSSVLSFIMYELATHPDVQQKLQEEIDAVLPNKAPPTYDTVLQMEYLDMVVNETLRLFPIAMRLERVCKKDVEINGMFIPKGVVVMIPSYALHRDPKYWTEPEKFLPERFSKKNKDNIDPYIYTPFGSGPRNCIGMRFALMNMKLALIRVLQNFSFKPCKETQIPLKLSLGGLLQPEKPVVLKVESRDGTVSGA

[11] = Apparent permeability in human Caco2 cells; assay type: ADME, cell-based; details: Caco-2
[12] = Solubility of the compound in water at pH 2; assay type: physicochemical
[13] = Solubility of the compound in water at pH 7.4; assay type: physicochemical
[14] = Plasma protein binding in Sprague-Dawley rat; assay type: ADME, cell-free; details: read-out: PPB (converted)
[15] = Plasma protein binding in Beagle dog; assay type: ADME, cell-free, Canis lupus familiaris; details: read-out: PPB (converted)
[16] = Plasma protein binding in human; assay type: ADME, cell-free; details: read-out: PPB (converted)
[17] = Fraction unbound in Sprague-Dawley rat brain homogenate; assay type: ADME, tissue-based
[18] = Half life in Sprague-Dawley rat at 1 mg/kg, iv; assay type: ADME, organism-based; set-up: dose 1 mg/kg, route intravenous; details: in vivo
[19] = Half life in Beagle dog at 1 mg/kg, iv; assay type: ADME, organism-based, Canis lupus familiaris; set-up: dose 1 mg/kg, route intravenous; details: in vivo
[20] = Half life in cynomolgus monkey at 1 mg/kg, iv; assay type: ADME, organism-based, Macaca fascicularis; set-up: dose 1 mg/kg, route intravenous; details: in vivo
[21] = Volume of distribution in Sprague-Dawley rat at 1 mg/kg, iv and 10 mg/kg, po; assay type: ADME, organism-based; details: in vivo
[22] = Volume of distribution in Beagle dog at 1 mg/kg, iv and 3 mg/kg, po; assay type: ADME, organism-based, Canis lupus familiaris; details: in vivo
[23] = Volume of distribution in cynomolgus monkey at 1 mg/kg, iv and 3 mg/kg, po; assay type: ADME, organism-based, Macaca fascicularis; details: in vivo
[24] = Clearance in Sprague-Dawley rat at 1 mg/kg, iv and 10 mg/kg, po; assay type: ADME, organism-based; details: in vivo
[25] = Clearance in Beagle dog at 1 mg/kg, iv and 3 mg/kg, po; assay type: ADME, organism-based, Canis lupus familiaris; details: in vivo
[26] = Clearance in cynomolgus monkey at 1 mg/kg, iv and 3 mg/kg, po; assay type: ADME, organism-based, Macaca fascicularis; details: in vivo
[27] = AUC in Sprague-Dawley rat at 10 mg/kg, po; assay type: ADME, organism-based; set-up: dose 10 mg/kg, route oral; details: plasma
[28] = AUC in Beagle dog at 3 mg/kg, po; assay type: ADME, organism-based, Canis lupus familiaris; set-up: dose 3 mg/kg, route oral; details: plasma
[29] = AUC in cynomolgus monkey at 3 mg/kg, po; assay type: ADME, organism-based, Macaca fascicularis; set-up: dose 3 mg/kg, route oral; details: plasma
[30] = Cmax in Sprague-Dawley rat at 1 mg/kg, iv and 10 mg/kg, po; assay type: ADME, organism-based; details: in vivo
[31] = Cmax in Beagle dog at 1 mg/kg, iv and 3 mg/kg, po; assay type: ADME, organism-based, Canis lupus familiaris; details: in vivo
[32] = Cmax in cynomolgus monkey at 1 mg/kg, iv and 3 mg/kg, po; assay type: ADME, organism-based, Macaca fascicularis; details: in vivo
[33] = Half life in Sprague-Dawley rat at 1 mg/kg, iv and 10 mg/kg, po; assay type: ADME, organism-based; details: in vivo
[34] = Half life in cynomolgus monkey at 1 mg/kg, iv and 3 mg/kg, po; assay type: ADME, organism-based, Macaca fascicularis; details: in vivo
[35] = Oral bioavailability in Beagle dog at 3 mg/kg; assay type: ADME, organism-based, Canis lupus familiaris; details: in vivo
[36] = Oral bioavailability in cynomolgus monkey at 3 mg/kg; assay type: ADME, organism-based, Macaca fascicularis; details: in vivo
Rattus norvegicus [37] = experiment: Inhibition of RAMH-induced dispogenia in po dosed Long Evans rat measured for 30 mins; assay type: functional

clearance [1]: 67 mL/min/kg | half-life [2]: 1.2 h | Ki (Histamine H3 receptor [3]): 6.5 nM | Ki (Histamine H3 receptor [4]): 2 nM | bioavailability [5]: 53% | Kp at 1 h [6]: 1.7
Structure (SMILES): Cc1nn(C)c(=O)cc1-c1ccc(OCCCN2CCC[C@H]2C)cc1

clearance [1]: 30 mL/min/kg | half-life [2]: 0.8 h | Ki (Histamine H3 receptor [3]): 23 nM | Ki (Histamine H3 receptor [4]): 7.9 nM | bioavailability [5]: 28% | Kp at 1 h [6]: 1.3
Structure (SMILES): Cc1n[nH]c(=O)cc1-c1ccc(OCCCN2CCCCC2)cc1

clearance [1]: 25 mL/min/kg | half-life [2]: 1.8 h | Ki (Histamine H3 receptor [3]): 12 nM | Ki (Histamine H3 receptor [4]): 5.3 nM | bioavailability [5]: 28% | Kp at 1 h [6]: 1.8
Structure (SMILES): O=c1cc(-c2ccc(OCCCN3CCCCCC3)cc2)cnn1-c1ccccn1

clearance [1]: 75 mL/min/kg | half-life [2]: 0.6 h | Ki (Histamine H3 receptor [3]): 30 nM | Ki (Histamine H3 receptor [4]): 13 nM | bioavailability [5]: 40% | Kp at 1 h [6]: 5.3
Structure (SMILES): Cn1ncc(-c2ccc(OCCCN3CCCCC3)cc2)cc1=O

clearance [1]: 13 mL/min/kg | half-life [2]: 1.3 h | Ki (Histamine H3 receptor [3]): 5 nM | Ki (Histamine H3 receptor [4]): 1.7 nM | bioavailability [5]: 15% | Kp at 1 h [6]: 0.7
Structure (SMILES): Cc1nn(-c2ccccn2)c(=O)cc1-c1ccc(OCCCN2CCC[C@H]2C)cc1

clearance [1]: 19 mL/min/kg | half-life [2]: 1.7 h | bioavailability [8]: 78% | Kp at 1 h [6]: 1.1 | half-life [9]: 0.8 h | half-life [10]: > 0.667 h | IC50 (Cytochrome P450 1A2): > 30000 nM | IC50 (Cytochrome P450 2C9): > 30000 nM | IC50 (Cytochrome P450 2C19): > 30000 nM | IC50 (Cytochrome P450 2D6): > 30000 nM | IC50 (Cytochrome P450 3A4): > 30000 nM | Papp [11]: 13.7 ×10⁻⁶ cm/s | solubility [12]: 1400 µg/mL (≈ 3590 µM) | solubility [13]: 900 µg/mL (≈ 2300 µM) | fraction unbound [14]: 0.55 | fraction unbound [15]: 0.68 | fraction unbound [16]: 0.56 | fraction unbound [17]: 0.39 | half-life [18]: 1.7 h | half-life [19]: 3.6 h | half-life [20]: 3.9 h | Vd [21]: 3 L/kg | Vd [22]: 5.9 L/kg | Vd [23]: 7.1 L/kg | clearance [24]: 20 mL/min/kg | clearance [25]: 19 mL/min/kg | clearance [26]: 21 mL/min/kg | AUC [27]: 6800 ng·h/mL | AUC [28]: 2400 ng·h/mL | AUC [29]: 2080 ng·h/mL | Cmax [30]: 898 ng/mL | Cmax [31]: 417 ng/mL | Cmax [32]: 326 ng/mL | half-life [33]: 4.5 h | half-life [34]: 6.5 h | bioavailability [35]: 92% | bioavailability [36]: 96%
Structure (SMILES): C[C@@H]1CCCN1CCCOc1ccc(-c2cnn(-c3ccccn3)c(=O)c2)cc1
Activity (Rattus norvegicus [7]): Active | Activity (Mus musculus): Non-toxic | Activity (Salmonella typhimurium): Toxic | inhibition (Rattus norvegicus [37]): Dose-dependent effect | ED50 (Rattus norvegicus [37]; 0.5 h): 0.07 mg/kg

clearance [1]: 25 mL/min/kg | half-life [2]: 1.4 h | Ki (Histamine H3 receptor [3]): 5.1 nM | Ki (Histamine H3 receptor [4]): 1.6 nM | bioavailability [5]: 20% | Kp at 1 h [6]: 1.6
Structure (SMILES): Cc1n[nH]c(=O)cc1-c1ccc(OCCCN2CCC[C@H]2C)cc1

clearance [1]: 34 mL/min/kg | half-life [2]: 1.8 h | Ki (Histamine H3 receptor [3]): 8.6 nM | Ki (Histamine H3 receptor [4]): 2.5 nM | bioavailability [5]: 30% | Kp at 1 h [6]: 0.2
Structure (SMILES): Cc1cccnc1-n1ncc(-c2ccc(OCCCN3CCC[C@H]3C)cc2)cc1=O

clearance [1]: 24 mL/min/kg | half-life [2]: 1.6 h | Ki (Histamine H3 receptor [3]): 28 nM | Ki (Histamine H3 receptor [4]): 19 nM | bioavailability [5]: 42% | Kp at 1 h [6]: 3
Structure (SMILES): O=c1cc(-c2ccc(OCCCN3CCCCC3)cc2)cn[nH]1

Kp at 1 h [6]: 1.8
Structure (SMILES): C[C@@H]1CCCN1CCCOc1ccc(-c2cn[nH]c(=O)c2)cc1
